We go through 1 molecule from US11840513B2, “Substituted nicotinimide inhibitors of BTK for treating cancer” (GUANGZHOU INNOCARE PHARMA TECH CO., LTD., priority 2013, dated 2023).

The assay deals with SRC (Homo sapiens (Human), UniProt P12931). In words: kinase-tagged phage / affinity bead competition binding screen at 1000 nM (qPCR readout). The conditions noted are these: 1000 nM screen. On the technique in general: Quantitative PCR measures a nucleic acid by following its amplification.

Each structure is given as a SMILES string.

Chain of SRC (P12931 whole entry, looked up): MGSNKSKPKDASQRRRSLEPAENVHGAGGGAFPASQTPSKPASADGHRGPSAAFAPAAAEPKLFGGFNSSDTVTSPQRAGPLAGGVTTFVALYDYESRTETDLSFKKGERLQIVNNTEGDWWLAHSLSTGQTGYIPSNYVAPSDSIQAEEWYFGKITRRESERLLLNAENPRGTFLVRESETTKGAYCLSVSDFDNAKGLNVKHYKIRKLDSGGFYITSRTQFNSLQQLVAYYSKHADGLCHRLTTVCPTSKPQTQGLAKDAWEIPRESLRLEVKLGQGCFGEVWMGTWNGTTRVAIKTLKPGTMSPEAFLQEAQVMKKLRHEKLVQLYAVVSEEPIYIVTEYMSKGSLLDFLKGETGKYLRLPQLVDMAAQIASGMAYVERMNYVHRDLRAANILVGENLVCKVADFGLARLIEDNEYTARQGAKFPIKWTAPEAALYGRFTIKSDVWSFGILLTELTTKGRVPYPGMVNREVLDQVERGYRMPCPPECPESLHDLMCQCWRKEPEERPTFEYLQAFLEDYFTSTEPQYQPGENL

Take `C=CC(=O)N1CCN(c2ccc(C(N)=O)c(-c3ccc(Oc4ccccc4)cc3)n2)CC1` [Example 5, 6-(4-acryloylpiperazin-1-yl)-2-(4-phenoxyphenyl)nicotinamide]: the “Fold Difference (BTK vs SRC)” value was above 100×.
